*1 amine or outer side, *2 acyl side, *3 side chain or, on linkers, in order; H or OH if unused. Where a SMILES comes first, the peptide text is derived from it. [ ]: non-standard residue; d: D form. X1 = O=C1c2ccccc2[C@@](O)(CN(Cc2ccccc2)[*:1])N1CC(=O)[*:2]; NMeL = CN[C@@H](CC(C)C)C(=O)O
Columns and labels:
Format in all cases: cell-based, human
HepG-2 cells = experiment: Intracellular Ca2+ level, Fluo-3 AM flow cytometry; conditions: 24 h treatment
Description: It has been clear that subtle changes in Ca^2+ concentration, such as intracellular calcium overload, can regulate and trigger apoptosis by inducing the production of mitochondrial trifunctional protein [24]. In this paper, we tried to study the influence of our prepared cyclic peptide on the intracellular calcium ion concentration. The cell-permeable fluorescent dye, Fluo-3 AM, is the most commonly used indicator to detect intracellular calcium ion concentration. […] Based on this principle, intracellular calcium ion concentrations can be detected by flow cytometry. In this paper, HepG-2 cells treated with solvent and the desired concentration of compound 8 for 24 h were collected and co-incubated with Fluo-3 AM. After loading, intracellular Ca^2+ levels were measured by flow cytometry.
Cells incubated in 6-well plates were treated in a similar way as mentioned above, and then 100 µL of Fluo-3 AM (5 µM) was added and incubated for 1 h at 37 °C away from light. After rewashing the cells, the suspended precipitate in PBS was checked by flow cytometry (excitation at 488 nm and emission at 525 nm).

MDA-MB-231 cells = conditions: 48 h
Description: The antitumor activity of the prepared cyclic peptides against human hepatocellular carcinoma cells (HepG-2), human cervical cancer cell lines (HeLa) and human breast cancer cells (MDA-MB-231) was examined by MMT assay, and the mouse fibroblast L929 cells were used as the model cells to evaluate the toxicity of cyclopeptides to normal cell lines. Due to the absence of an authentic standard, taxol was chosen as a control because it is a widely used chemotherapeutic drug for the treatment of various cancers, including liver cancer.
Samples were dissolved in DMSO and diluted into different concentrations ([…], 18.75, 25, 37.5, 50, 75, 100 and 250 μM) and stored at 4 °C. Cells in the logarithmic growth phase were digested with trypsin and then seeded in 96-well plates at a density of 2 × 10^4 cells/well in 100 μL of culture medium. The cells were treated with different concentrations of the tested compound, and a blank control group without the drug was also set up. Six wells were repeated for each dose. After 48 h of co-incubation, MTT solution (100 μL, 0.5 mg/mL) was added, followed by incubation for another 4 h. After discarding the supernatant, 100 μL of DMSO was added per well, and the absorbance (OD) values were measured at 490 nm using an enzyme marker. Cell viability was calculated by the formula: Cell viability (%) = As/Ab × 100% (where As is the absorbance value of the experimental group and Ab is the absorbance value of the blank group). The obtained data were processed using SPSS19 software to obtain IC50 values.

[1] = system: lactate dehydrogenase in HepG-2 cells; experiment: Lactate dehydrogenase (LDH) activity assay in cells; conditions: 48 h
Description: The accumulation of lactate dehydrogenase can produce lactate metabolites and cause the deterioration of tumor cells. By inhibiting lactate dehydrogenase activity, the energy supply of tumor cells would be blocked, thus reducing their metastasis and progression. Therefore, in this paper, we also investigated the inhibitory activity of compound 8 on lactate dehydrogenase in HepG-2 cells. It has been known that LDH could catalyze lactic acid to generate pyruvate, which could react with 2,4-dinitrophenylhydrazine (DNPH) to form dinitrophenyl-pyruvate and form a reddish-brown product after reacting with an alkaline solution. The obtained product can be assessed by visible spectrophotometry. […]
Lactate dehydrogenase activity of HepG-2 cells treated with compound 8 was examined by using the Lactate Dehydrogenase Kit (Beijing Solarbio Science & Technology, Beijing, China) according to the instructions for use. […] Then the other reagents in the Lactate Dehydrogenase Kit (Beyotime Biotechnology, Shanghai, China) were added according to the instructions, and the absorption of the mixture was measured by the spectrophotometer. […] The absorption of the standard solution at 450 nm was measured to plot the standard curve. […]

cytochrome C = experiment: Western blot of cytochrome C in the cytosol; conditions: HepG-2 cells, increasing peptide concentrations, vs control
Description: Moreover, as mentioned previously and in others’ reports, the apoptosis of HepG-2 induced by galaxamide might be related to a mitochondria-mediated pathway. It has been known that with the decrease in the mitochondrial membrane potential, the cytochrome C in mitochondrion is released to the cytosol and can be detected. Therefore, we have also checked the content of cytochrome C in the cytosol by Western blotting to further verify the mitochondrial apoptotic pathway.
HepG-2 cells (5 × 10^6 cells) in the medium were treated with different concentrations of compounds for the required time and were washed twice with ice-cold PBS. The cells were scraped into cell lysate buffer containing phenylmethanesulfonyl fluoride (PMSF) and transferred to a 1.5 mL centrifuge tube, then lysed for 20 min at 4 °C. After centrifuging (12,000 r/min) for 20 min, the supernatant was collected and measured using the BCA Protein Assay Kit (Beyotime Biotechnology Co. Ltd., Shanghai, China)). Protein samples were then electrophoresed on 12% SDS-polyacrylamide gels and transferred to polyvinylidene difluoride (PVDF) membranes. The membranes were then closed with 5% skim milk in Tris-buffered saline Tween 20 (TBST) (containing 50 mM Tris-HCl, 150 mM NaCl and 0.02% Tween-20) for 2 h. […]

IC50 (MDA-MB-231 cells): 41.7 ± 3.2 µM
SMILES: CC(C)C[C@@H]1NC(=O)CN2C(=O)c3ccccc3[C@@]2(O)CN(Cc2ccccc2)C(=O)[C@H](CC(C)C)NC(=O)[C@H](CC(C)C)N(C)C(=O)[C@H](CC(C)C)NC(=O)[C@H](CC(C)C)NC1=O [Compound 8, 3-Hydroxy-isoindolinone-cyclo-Gly-Leu-N-Me-Leu-Leu-Leu-Leu] (cyclo(LL[NMeL]L[X1]L))
Fluo-3 fluorescence intensity (intracellular Ca2+) relative to control group (HepG-2 cells): 4.83 times
effect on lactate dehydrogenase activity [1]: significant decrease
level of cytochrome C in the cytosol (cytochrome C): increased significantly
